According to patent US20160076075A1 (priority 2014, published 2016):

Tests used:
[1] = test system: IMCSzyme™ (recombinant glucuronidase); experiment: IMCSzyme hydrolysis of opiate glucuronides; format: biochemical; conditions: for Cleavage in the presence of the IMCSzyme (in words): compared with planar THCA-glucuronide
[2] = test system: IMCSzyme™ (recombinant glucuronidase); format: biochemical
[3] = test system: IMCSzyme™ (recombinant glucuronidase); experiment: IMCSzyme hydrolysis of THCA glucuronide with and without water miscible organic media; format: biochemical
Protocol: To a 10 mL volumetric flask add 5 mL of 0.2M Sodium Phosphate buffer pH 7.5. Then add 1.0 mL of IMCS enzyme. QS to the line with 0.2M phosphate buffer, cap and invert several times to mix well. Final enzyme concentration is 5000 U.
To a 10 mL volumetric flask add 6 mL of 50/50 ACN/MeOH. Add […] of THCA D9 100 μg/mL. Then add 1.0 mL of IMCS enzyme stock (>5000 U). QS to the line with 0.2M sodium phosphate buffer. Final enzyme concentration is 5000 U.
In a 10 mL volumetric flask add 6 mL of 50/50 ACN/MeOH. Add 25 μL of THCA D9 (100 μg/mL). QS to the line with DI water, cap and invert several times to mix well. Concentration of IS will be 250 ng/mL.
(§1) To a 10 mL volumetric flask add 1 mL ACN. Add 18.5 μL of 10 μg/mL THCA Glucuronide working solution adjusted to allow quantitation of THCA at 18.5 ng/mL post hydrolysis. QS to line with NHU.
Pipet 50 μL sample into a 750 μL autosampler vial. Pipet 50 μL of prepared enzyme into vial (this will yield 500 U in final 500 μL volume) and wait 5, 10, 15, and 20 minutes. Then pipet 400 μL of THCA D9 IS into the vial. Vortex and move to instrument.
Pipet 50 μL sample into a 750 μL, autosampler vial. Then pipet 450 μL, of Enzyme Stock Solution With Organic (see above) into vial. Wait 5, 10, 15, and 20 minutes. Vortex and move to instrument.

[4] = test system: Red Abalone beta-glucuronidase (Kura Biotec); experiment: Red Abalone beta-glucuronidase hydrolysis of THCA glucuronide; format: biochemical; conditions: for Enzyme + Organic Solvent(s) (% Hydrolysis) / Enzyme (% Hydrolysis): 65° C.; for Enzyme + Organic Solvent(s) (% Hydrolysis): ACN/MeOH; for Enzyme (% Hydrolysis): without organic
Protocol: To a 10 mL volumetric flask add 5 mL of DI water. Then add 1.0 mL of Kura Biotec enzyme. QS to the line with DI water, cap and invert several times to mix well. Final enzyme concentration is 5000 U.
In a 10 mL volumetric flask add 6 mL of 50/50 ACN/MeOH. Add 25 μL of THCA D9 100 μg/mL. Then add 1.0 mL of IMCS enzyme. QS to the line with DI water. Final enzyme concentration is 5000 U.
To a 10 mL volumetric flask add 6 mL of 50/50 ACN/MeOH. Add 25 μL of THCA D9 (100 μg/mL). QS to the line with DI water, cap and invert several times to mix well. Concentration of IS will be 250 ng/mL.
as §1
(§2) Pipet 50 μL sample into a 750 μL autosampler vial. Pipet 50 μL of prepared enzyme into vial (this will yield 500 U in final 500 μL volume). Vortex and heat 15, 30, 45, and 60 minutes. Then pipet 400 μL of THCA D9 IS into vial. Vortex and move to instrument.
Pipet 50 μL sample into a 750 μL autosampler vial. Then pipet 450 μL of Enzyme Stock Solution With Organic (see above) into vial. Vortex and heat 15, 30, 45, and 60 minutes. Vortex and move to instrument.

[5] = Hydrolysis of THCA glucuronide at 65° C. with no enzyme; format: physicochemical; conditions: for No Enzyme (% Hydrolysis): 65° C.
Protocol: as §1, §2
In the presence of enzyme, the THCA glucuronide is hydrolyzed completely by 15 min.

## CN1CC[C@]23c4c5ccc(O[C@@H]6O[C@H](C(=O)O)[C@@H](O)[C@H](O)[C@H]6O)c4O[C@H]2C(=O)CC[C@H]3[C@H]1C5 [Hydromorphone Glucuronide]
[1]; 55° C., 0 min
  Mean % Hydrolysis: 58.5%
[1]; 55° C., 15 min
  Mean % Hydrolysis: 80.5%
[1]; 55° C., 30 min
  Mean % Hydrolysis: 91.1%
[1]; 55° C., 45 min
  Mean % Hydrolysis: 93.3%
[1]; 55° C., 60 min
  Mean % Hydrolysis: 93.8%
[1]; 65° C., 0 min
  Mean % Hydrolysis: 58.5%
[1]; 65° C., 15 min
  Mean % Hydrolysis: 77.1%
[1]; 65° C., 30 min
  Mean % Hydrolysis: 89.4%
[1]; 65° C., 45 min
  Mean % Hydrolysis: 91.0%
[1]; 65° C., 60 min
  Mean % Hydrolysis: 91.5%

## CN1CC[C@]23c4c5ccc(O)c4O[C@H]2[C@@H](O[C@@H]2O[C@H](C(=O)O)[C@@H](O)[C@H](O)[C@H]2O)C=C[C@H]3[C@H]1C5 [Morphine-6-Glucuronide]
[1]; 55° C., 0 min
  Mean % Hydrolysis: 40.4%
[1]; 55° C., 15 min
  Mean % Hydrolysis: 67.9%
[1]; 55° C., 30 min
  Mean % Hydrolysis: 83.6%
[1]; 55° C., 45 min
  Mean % Hydrolysis: 95.9%
[1]; 55° C., 60 min
  Mean % Hydrolysis: 91.7%
[1]; 65° C., 0 min
  Mean % Hydrolysis: 40.4%
[1]; 65° C., 15 min
  Mean % Hydrolysis: 71.2%
[1]; 65° C., 30 min
  Mean % Hydrolysis: 88.3%
[1]; 65° C., 45 min
  Mean % Hydrolysis: 98.5%
[1]; 65° C., 60 min
  Mean % Hydrolysis: 97.9%
[1]
  Cleavage in the presence of the IMCSzyme (in words): take more time and heat to cleave

## CN1CC[C@]23c4c5ccc(O[C@@H]6O[C@H](C(=O)O)[C@@H](O)[C@H](O)[C@H]6O)c4O[C@H]2C(=O)CC[C@@]3(O)[C@H]1C5 [Oxymorphone Glucuronide]
[1]; 55° C., 0 min
  Mean % Hydrolysis: 43.6%
[1]; 55° C., 15 min
  Mean % Hydrolysis: 71.7%
[1]; 55° C., 30 min
  Mean % Hydrolysis: 90.5%
[1]; 55° C., 45 min
  Mean % Hydrolysis: 97.0%
[1]; 55° C., 60 min
  Mean % Hydrolysis: 101.2%
[1]; 65° C., 0 min
  Mean % Hydrolysis: 43.6%
[1]; 65° C., 15 min
  Mean % Hydrolysis: 76.2%
[1]; 65° C., 30 min
  Mean % Hydrolysis: 89.7%
[1]; 65° C., 45 min
  Mean % Hydrolysis: 95.6%
[1]; 65° C., 60 min
  Mean % Hydrolysis: 100.0%

## CO[C@]12CC[C@@]3(C[C@@H]1[C@](C)(O)C(C)(C)C)[C@H]1Cc4ccc(O[C@@H]5O[C@H](C(=O)O)[C@@H](O)[C@H](O)[C@H]5O)c5c4[C@@]3(CCN1CC1CC1)[C@H]2O5 [Buprenorphine Glucuronide]
[2]
  Cleavage by the recombinant enzyme (in words): rapidly cleaves

## CCCCCc1cc(O)c2c(c1)OC(C)(C)C1CCC(C(=O)OC3OC(C(=O)O)C(O)C(O)C3O)=CC21 (centres unmarked) [THCA Glucuronide]
[3]; Enzyme added and incubated, then organic media added, 5 min at 55° C.
  Mean % Hydrolysis: 89.2%
[3]; Enzyme added and incubated, then organic media added, 5 min at 65° C.
  Mean % Hydrolysis: 90.1%
[3]; Enzyme and organic media added at same time, 5 min at Room Temp
  Mean % Hydrolysis: 110.2%
[3]; Enzyme and organic media added at same time, 10 min at Room Temp
  Mean % Hydrolysis: 101.7%
[3]; Enzyme and organic media added at same time, 15 min at Room Temp
  Mean % Hydrolysis: 104.9%
[3]; room temperature, time to fill the 96-well plate (~15 min using robotics)
  Recombinant enzyme hydrolysis (in words): complete
[4]; 15 min
  Enzyme + Organic Solvent(s) (% Hydrolysis): 121%
  Enzyme (% Hydrolysis): 104%
[4]; 30 min
  Enzyme + Organic Solvent(s) (% Hydrolysis): 130%
  Enzyme (% Hydrolysis): 97%
[4]; 45 min
  Enzyme + Organic Solvent(s) (% Hydrolysis): 134%
  Enzyme (% Hydrolysis): 102%
[4]; 60 min
  Enzyme + Organic Solvent(s) (% Hydrolysis): 136%
  Enzyme (% Hydrolysis): 101%
[4]; enzyme and 60% water miscible solvent, as early as 15 min
  Hydrolysis: 100%
[4]; in the presence of enzyme
  Time by which hydrolyzed completely: ≤ 15 min
[5]; 15 min
  No Enzyme (% Hydrolysis): 0.03%
[5]; 30 min
  No Enzyme (% Hydrolysis): 0.03%
[5]; 45 min
  No Enzyme (% Hydrolysis): 0.03%
[5]; 60 min
  No Enzyme (% Hydrolysis): 0.03%
[5]; elevated temperature
  Hydrolysis in the absence of enzyme (in words): no hydrolysis

## CN1CC[C@]23c4c5ccc(O[C@@H]6O[C@H](C(=O)O)[C@@H](O)[C@H](O)[C@H]6O)c4O[C@H]2[C@@H](O)C=C[C@H]3[C@H]1C5 [Morphine-3-Glucuronide]
[1]; 55° C., 0 min
  Mean % Hydrolysis: 99.5%
[1]; 55° C., 15 min
  Mean % Hydrolysis: 99.1%
[1]; 55° C., 30 min
  Mean % Hydrolysis: 99.1%
[1]; 55° C., 45 min
  Mean % Hydrolysis: 97.4%
[1]; 55° C., 60 min
  Mean % Hydrolysis: 99.9%
[1]; 65° C., 0 min
  Mean % Hydrolysis: 99.5%
[1]; 65° C., 15 min
  Mean % Hydrolysis: 95.9%
[1]; 65° C., 30 min
  Mean % Hydrolysis: 95.8%
[1]; 65° C., 45 min
  Mean % Hydrolysis: 97.9%
[1]; 65° C., 60 min
  Mean % Hydrolysis: 97.6%

## COc1ccc2c3c1O[C@H]1[C@@H](O[C@@H]4O[C@H](C(=O)O)[C@@H](O)[C@H](O)[C@H]4O)C=C[C@H]4[C@@H](C2)N(C)CC[C@@]341 [Codeine Glucuronide]
[1]; 55° C., 0 min
  Mean % Hydrolysis: 15.7%
[1]; 55° C., 15 min
  Mean % Hydrolysis: 40.2%
[1]; 55° C., 30 min
  Mean % Hydrolysis: 65.6%
[1]; 55° C., 45 min
  Mean % Hydrolysis: 76.6%
[1]; 55° C., 60 min
  Mean % Hydrolysis: 81.8%
[1]; 65° C., 0 min
  Mean % Hydrolysis: 15.7%
[1]; 65° C., 15 min
  Mean % Hydrolysis: 42.7%
[1]; 65° C., 30 min
  Mean % Hydrolysis: 64.1%
[1]; 65° C., 45 min
  Mean % Hydrolysis: 75.5%
[1]; 65° C., 60 min
  Mean % Hydrolysis: 79.8%
[1]
  Cleavage in the presence of the IMCSzyme (in words): take more time and heat to cleave
